Source: patent publication US20230226064A1, “ORAL LIQUID FORMULATIONS OF RUXOLITINIB” (Novartis AG, priority 2020, published 2023)

Test: Solubility profile of ruxolitinib phosphate in buffer solutions at 37° C.
Type: physicochemical
Excerpt: Development of stable and palatable oral solution formulation for ruxolitinib is challenging due to pH dependent solubility (see Table 2) of the drug substance with mainly oxidation degradation products at higher temperatures/moisture content and/or in presence of oxygen.

solubility (aqueous buffer, Buffer solution pH 3.3): ≥ 520 µg/mL | solubility (aqueous buffer, Buffer solution pH 4.3): 350 µg/mL | solubility (aqueous buffer, Buffer solution pH 5.3): 290 µg/mL | solubility (aqueous buffer, Buffer solution pH 7.5): 150 µg/mL | solubility (aqueous buffer, Buffer solution pH 8.0): 170 µg/mL | solubility (simulated gastric fluid, Buffer solution pH 1.0): ≥ 540 µg/mL
Compound: N#CC[C@H](C1CCCC1)n1cc(-c2ncnc3[nH]ccc23)cn1 [ruxolitinib phosphate]
